Assay results reported in ChEMBL document CHEMBL1201862, “PubChem BioAssay data set” (2004).
The source made the active and inactive calls.

Assays:
[1] = target: T1, Runt-related transcription factor 1/Core-binding factor subunit beta (Homo sapiens, UniProt Q01196+Q13951); experiment: inhibitors of RUNX1 Runt–CBFb-SMMHC binding, primary screen, biochemical, FRET, Cerulean-Runt, Venus-CBFb-SMMHC, uHTS (AID 1434); assay type: protein assay;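 note: partner is the CBFb-SMMHC leukemia fusion protein rather than wild-type CBFb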
T1 sequence (Q01196 whole entry, the tested form may be a part): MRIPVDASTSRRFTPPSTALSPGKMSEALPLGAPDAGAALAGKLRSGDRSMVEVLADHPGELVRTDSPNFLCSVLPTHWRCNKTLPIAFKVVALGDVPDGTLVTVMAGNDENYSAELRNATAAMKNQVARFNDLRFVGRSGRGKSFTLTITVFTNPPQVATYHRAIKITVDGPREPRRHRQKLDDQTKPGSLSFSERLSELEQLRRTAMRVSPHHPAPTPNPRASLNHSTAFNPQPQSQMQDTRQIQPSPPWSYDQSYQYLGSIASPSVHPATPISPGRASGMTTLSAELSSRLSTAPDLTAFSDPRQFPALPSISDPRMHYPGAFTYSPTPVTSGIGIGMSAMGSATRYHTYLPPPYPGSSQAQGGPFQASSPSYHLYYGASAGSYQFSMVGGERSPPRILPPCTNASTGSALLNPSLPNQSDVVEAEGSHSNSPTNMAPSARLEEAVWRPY
T1 sequence (Q13951 whole entry, the tested form may be a part): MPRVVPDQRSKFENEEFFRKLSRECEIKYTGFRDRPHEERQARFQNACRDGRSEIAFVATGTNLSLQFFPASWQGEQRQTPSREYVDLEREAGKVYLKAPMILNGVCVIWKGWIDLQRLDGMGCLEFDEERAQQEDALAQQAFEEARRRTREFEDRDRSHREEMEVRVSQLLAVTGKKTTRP

[2] = target: T1, Runt-related transcription factor 1/Core-binding factor subunit beta; experiment: inhibitors of RUNX1 Runt–CBFb-SMMHC binding, biochemical, TR-FRET (AID 1438); assay type: protein assay
[3] = target: Induced myeloid leukemia cell differentiation protein Mcl-1 (Homo sapiens, UniProt Q07820); experiment: MCL1-BIM BH3 interaction inhibitors, dose response, biochemical, fluorescence polarization, BIM-BH3 peptide, 1536-well (AID 2217)
[4] = target: Bcl-2-like protein 1 (Homo sapiens, UniProt Q07817); experiment: BCL-XL inhibitors, dose response, selectivity assay for MCL1 inhibitor project, biochemical, fluorescence polarization, 1536-well (AID 2218)
Chain of Bcl-2-like protein 1 (Q07817 whole entry): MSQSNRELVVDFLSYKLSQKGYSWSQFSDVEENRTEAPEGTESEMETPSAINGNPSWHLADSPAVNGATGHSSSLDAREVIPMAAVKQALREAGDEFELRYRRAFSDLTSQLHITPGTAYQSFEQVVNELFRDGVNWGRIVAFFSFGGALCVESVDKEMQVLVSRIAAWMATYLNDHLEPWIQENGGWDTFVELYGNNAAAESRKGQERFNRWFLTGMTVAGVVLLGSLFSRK

[5] = target: DNA dC->dU-editing enzyme APOBEC-3A (Homo sapiens, UniProt P31941); experiment: Dose Response confirmation of small molecule APOBEC3A DNA Deaminase Inhibitors via a fluorescence-based single-stranded DNA deaminase assay. [Related pubchem assays (depositor defined):AID493011, AID493024]; assay type: functional
[6] = target: DNA dC->dU-editing enzyme APOBEC-3G (Homo sapiens, UniProt Q9HC16); assay type: functional;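 note: Dose-response counterscreen measuring inhibition of APOBEC3G DNA deaminase activity, run while confirming APOBEC3A inhibitors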
Chain of DNA dC->dU-editing enzyme APOBEC-3G (Q9HC16 whole entry): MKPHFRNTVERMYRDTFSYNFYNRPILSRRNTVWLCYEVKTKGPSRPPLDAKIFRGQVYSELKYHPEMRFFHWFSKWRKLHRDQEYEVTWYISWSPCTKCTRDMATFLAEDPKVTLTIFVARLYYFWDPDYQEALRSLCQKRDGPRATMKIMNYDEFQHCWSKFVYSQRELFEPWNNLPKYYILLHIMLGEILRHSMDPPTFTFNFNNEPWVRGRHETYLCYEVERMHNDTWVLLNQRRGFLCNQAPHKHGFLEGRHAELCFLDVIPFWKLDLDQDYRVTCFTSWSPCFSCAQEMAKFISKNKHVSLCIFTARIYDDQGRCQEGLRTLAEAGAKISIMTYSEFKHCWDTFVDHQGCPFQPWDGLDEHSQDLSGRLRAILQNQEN

[7] = target: Caspase-6 (Homo sapiens, UniProt P55212); experiment: human caspase-6 inhibitors, dose response, biochemical, VEID-R110 fluorescence, cherry-pick (AID 720632)
[8] = target: Caspase-7 (Homo sapiens, UniProt P55210); experiment: human caspase-7 inhibitors, dose response, selectivity assay for caspase-6 inhibitor project, biochemical, DEVD-R110 fluorescence, cherry-pick (AID 743295)
[9] = target: T2, Coagulation factor XII (Homo sapiens, UniProt P00748); experiment: Factor XIIa Dose Response Confirmation from Single Well HTS. [Related pubchem assays (depositor defined):AID701]; assay type: functional
T2 sequence (P00748 whole entry): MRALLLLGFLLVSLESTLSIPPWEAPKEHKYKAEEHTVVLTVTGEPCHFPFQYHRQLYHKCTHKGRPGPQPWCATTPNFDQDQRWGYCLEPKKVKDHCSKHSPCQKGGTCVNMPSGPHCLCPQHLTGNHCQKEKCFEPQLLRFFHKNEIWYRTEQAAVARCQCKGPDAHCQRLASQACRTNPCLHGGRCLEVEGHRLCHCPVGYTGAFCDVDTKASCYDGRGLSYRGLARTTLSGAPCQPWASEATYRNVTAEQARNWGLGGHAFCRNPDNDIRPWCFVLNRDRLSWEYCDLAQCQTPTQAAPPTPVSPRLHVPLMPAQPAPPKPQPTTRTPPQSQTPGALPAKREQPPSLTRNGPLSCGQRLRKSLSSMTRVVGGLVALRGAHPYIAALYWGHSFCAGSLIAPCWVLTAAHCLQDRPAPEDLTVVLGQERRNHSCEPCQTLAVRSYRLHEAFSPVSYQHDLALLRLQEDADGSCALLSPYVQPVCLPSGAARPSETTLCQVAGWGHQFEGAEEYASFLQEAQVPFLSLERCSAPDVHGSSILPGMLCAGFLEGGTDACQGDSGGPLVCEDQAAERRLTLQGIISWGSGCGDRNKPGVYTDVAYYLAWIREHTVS

[10] = inhibitors of firefly luciferase expression or activity, dose response, H4 neuroglioma cells, luminescence (AID 1990); assay type: functional, cell-based
[11] = insulin promoter down-regulators in MIN6 cells, imaging, high-content screening, mouse beta cells (AID 1628); assay type: functional
[12] = system: BJ; experiment: cytotoxicity toward BJ-TERT fibroblasts, dose response, cell-based, RAS-independent, luminescence (AID 1933); assay type: functional; conditions: Homo sapiens
[13] = Luminescence Cell-Based Dose Response HTS to Identify Inhibitors of 5'UTR Stem-Loop Driven Prion Protein mRNA Translation in H4 Neuroglioblastoma Cells. [Related pubchem assays: 1827 (Project Summary), 1813 (Primary HTS)]; assay type: functional
[14] = cytotoxicity in MIN6 insulinoma cells, dose response, cytotoxicity control, cell-based, mouse insulinoma (AID 2122); assay type: functional;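 note: confirmatory high-throughput counterscreen run to flag cytotoxic compounds; mouse MIN-6 beta cells carrying an insulin promoter eGFP reporter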
[15] = target: T3, Heat shock factor protein 1 (Mus musculus, UniProt P38532); experiment: inhibition of MG132-induced HSE-luciferase signal, confirmation, cell-based, NIH3T3, luminescence, dose retest (AID 2382); assay type: functional;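 note: NIH3T3 fibroblasts with HSF1-driven luciferase reporter stressed by proteasome inhibitor MG132; luminescence from HSF1-driven luciferase expression after 8 hours of MG132 stress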
T3 sequence (P38532 whole entry): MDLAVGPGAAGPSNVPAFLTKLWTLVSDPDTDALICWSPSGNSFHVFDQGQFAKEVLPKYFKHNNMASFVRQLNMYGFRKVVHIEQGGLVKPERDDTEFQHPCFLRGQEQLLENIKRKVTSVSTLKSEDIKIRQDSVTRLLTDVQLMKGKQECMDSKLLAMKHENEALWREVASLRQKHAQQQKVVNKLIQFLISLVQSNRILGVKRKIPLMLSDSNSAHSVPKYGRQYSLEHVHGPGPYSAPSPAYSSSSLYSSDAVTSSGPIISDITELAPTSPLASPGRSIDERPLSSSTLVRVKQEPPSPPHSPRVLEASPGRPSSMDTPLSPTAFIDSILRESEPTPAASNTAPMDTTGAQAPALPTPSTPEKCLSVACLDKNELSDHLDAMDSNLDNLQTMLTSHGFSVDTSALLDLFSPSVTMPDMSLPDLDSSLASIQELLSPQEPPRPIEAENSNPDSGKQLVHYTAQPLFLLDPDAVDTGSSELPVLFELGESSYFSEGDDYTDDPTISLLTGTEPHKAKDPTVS

[16] = inhibitors of SNCA 5'UTR-driven reporter translation, confirmation, H4 neuroglioma cells, luminescence (AID 1988); assay type: functional, cell-based
[17] = system: BJ; experiment: cells; assay type: functional, cell-based; conditions: Homo sapiens
[18] = system: BJ; experiment: cytotoxicity toward BJ-TERT-LT-ST fibroblasts, dose response, cell-based, RAS-independent, luminescence (AID 1935); assay type: functional; conditions: Homo sapiens;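 note: BJ fibroblasts immortalized with TERT plus LT and ST oncogenes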
[19] = cytotoxicity toward DRD oncogenic fibroblasts, dose response, cell-based, non-viral oncogenic, luminescence (AID 1934); assay type: functional; conditions: Homo sapiens
[20] = target: T4, Type-1 angiotensin II receptor (Homo sapiens, UniProt P30556); experiment: AT1 receptor agonists, dose response, selectivity assay for APJ receptor agonist project, cell-based, uHTS hits (AID 488865); assay type: functional;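 note: beta-arrestin recruitment to AT1 measured by enzyme fragment complementation luminescence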
T4 sequence (P30556 whole entry): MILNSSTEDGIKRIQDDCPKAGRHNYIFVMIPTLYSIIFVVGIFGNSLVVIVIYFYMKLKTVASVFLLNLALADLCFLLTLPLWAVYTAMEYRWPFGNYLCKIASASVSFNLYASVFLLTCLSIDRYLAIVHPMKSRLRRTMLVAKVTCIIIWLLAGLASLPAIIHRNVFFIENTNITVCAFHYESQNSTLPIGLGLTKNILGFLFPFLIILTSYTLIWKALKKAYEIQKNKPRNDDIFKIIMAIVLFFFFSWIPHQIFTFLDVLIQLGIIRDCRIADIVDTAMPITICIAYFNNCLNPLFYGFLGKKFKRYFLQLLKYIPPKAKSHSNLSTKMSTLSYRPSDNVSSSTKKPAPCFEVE

[21] = target: X-box-binding protein 1 (Homo sapiens, UniProt P17861); assay type: functional, Cricetulus griseus;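 note: confirmatory dose-response counter-screen serving a CHOP assay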
Chain of X-box-binding protein 1 (P17861 whole entry): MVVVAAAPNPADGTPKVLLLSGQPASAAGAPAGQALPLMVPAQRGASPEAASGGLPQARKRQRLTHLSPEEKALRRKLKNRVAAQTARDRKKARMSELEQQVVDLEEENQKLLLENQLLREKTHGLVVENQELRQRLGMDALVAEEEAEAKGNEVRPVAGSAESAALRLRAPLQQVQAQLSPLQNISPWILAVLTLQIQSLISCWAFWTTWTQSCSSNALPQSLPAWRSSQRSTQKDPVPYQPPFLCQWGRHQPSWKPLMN

[22] = system: BJ; experiment: cytotoxicity toward Ras-transformed BJeLR fibroblasts, dose response, cell-based, alamar blue fluorescence, cherrypicked samples (AID 2631); assay type: functional; conditions: Homo sapiens;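 note: confirmatory dose-response assay in RAS-dependent BJ fibroblasts engineered with TERT, LT and ST, with cytotoxicity read by fluorescence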
[23] = system: INS1; experiment: beta cell apoptosis inhibitors, cytokine rescue, dose response, luminescence, retest (AID 449756); assay type: functional, cell-based; conditions: Rattus norvegicus;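 note: cell death triggered by IL-1 beta plus TNF-alpha plus IFN-gamma mixture; protective hits raise ATP signal compared with cytokine alone wells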
[24] = target: T2, Coagulation factor XII; experiment: FXIIa inhibitor potency, concentration-response, biochemical (AID 716); assay type: functional
[25] = system: T-cell; experiment: inhibitors of CD8+ T cell–vesicle binding, dose response, mouse 2C CD8+ T cells, flow cytometry (AID 485284); assay type: functional
[26] = target: T5, Cannabinoid receptor 2 (Homo sapiens, UniProt P34972); experiment: SAR analysis of antagonists of the Cannabinoid Receptor 2 using an Image-Based Assay - Set 2. [Related pubchem assays (depositor defined):AID1961, AID1965]; assay type: functional
T5 sequence (P34972 whole entry): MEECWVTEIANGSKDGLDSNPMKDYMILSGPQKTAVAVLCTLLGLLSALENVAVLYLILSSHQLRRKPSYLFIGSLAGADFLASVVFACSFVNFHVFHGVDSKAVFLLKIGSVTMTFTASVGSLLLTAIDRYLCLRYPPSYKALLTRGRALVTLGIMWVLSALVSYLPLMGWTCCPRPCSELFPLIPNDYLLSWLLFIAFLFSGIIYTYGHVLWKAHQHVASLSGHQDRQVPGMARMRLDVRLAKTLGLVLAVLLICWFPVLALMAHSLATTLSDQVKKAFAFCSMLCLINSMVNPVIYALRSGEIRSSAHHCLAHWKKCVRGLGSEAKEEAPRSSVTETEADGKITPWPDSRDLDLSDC

[27] = target: G-protein coupled receptor 55 (Homo sapiens, UniProt Q9Y2T6); experiment: SAR analysis of selective Agonists of GPR55 using an Image-Based Assay - Set 2. [Related pubchem assays (depositor defined):AID1961, AID1965]; assay type: functional
[28] = target: T5, Cannabinoid receptor 2; experiment: SAR analysis of agonists of the Cannabinoid Receptor 2 using an Image-Based Assay - Set 2. [Related pubchem assays (depositor defined):AID1961, AID1965]; assay type: functional
[29] = target: T6, G-protein coupled receptor 35 (Homo sapiens, UniProt Q9HC97); experiment: SAR analysis of Agonists of the GPR35 Receptor using an Image-Based Assay - Set 3. [Related pubchem assays (depositor defined):AID1961, AID1965]; assay type: functional
T6 sequence (Q9HC97 whole entry): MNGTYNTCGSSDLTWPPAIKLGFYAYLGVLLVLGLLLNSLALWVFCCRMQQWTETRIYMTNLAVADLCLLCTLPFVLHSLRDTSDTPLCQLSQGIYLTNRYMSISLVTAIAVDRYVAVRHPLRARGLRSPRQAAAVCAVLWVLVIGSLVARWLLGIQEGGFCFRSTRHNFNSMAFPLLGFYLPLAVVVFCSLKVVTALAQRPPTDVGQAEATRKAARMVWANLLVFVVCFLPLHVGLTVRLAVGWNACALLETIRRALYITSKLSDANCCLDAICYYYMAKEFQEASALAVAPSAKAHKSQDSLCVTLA

[30] = target: T7, Cannabinoid receptor 1 (Homo sapiens, UniProt P21554); experiment: SAR analysis of antagonists of the Cannabinoid Receptor 1 using an Image-Based Assay - Set 3. [Related pubchem assays (depositor defined):AID1961, AID1965]; assay type: functional
T7 sequence (P21554 whole entry): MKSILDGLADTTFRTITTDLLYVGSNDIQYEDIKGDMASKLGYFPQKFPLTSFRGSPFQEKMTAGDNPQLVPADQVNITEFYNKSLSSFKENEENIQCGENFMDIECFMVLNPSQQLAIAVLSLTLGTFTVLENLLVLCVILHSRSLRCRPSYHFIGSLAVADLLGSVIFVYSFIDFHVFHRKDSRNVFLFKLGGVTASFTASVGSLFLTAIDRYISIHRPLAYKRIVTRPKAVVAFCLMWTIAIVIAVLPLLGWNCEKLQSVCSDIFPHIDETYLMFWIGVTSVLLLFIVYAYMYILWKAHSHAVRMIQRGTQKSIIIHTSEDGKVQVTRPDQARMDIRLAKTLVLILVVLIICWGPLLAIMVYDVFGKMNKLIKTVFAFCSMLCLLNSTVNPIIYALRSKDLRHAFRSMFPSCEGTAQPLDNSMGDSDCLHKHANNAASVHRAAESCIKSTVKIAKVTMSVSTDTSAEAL

[31] = target: T7, Cannabinoid receptor 1; experiment: SAR analysis of agonists of the Cannabinoid Receptor 1 using an Image-Based Assay - Set 3. [Related pubchem assays (depositor defined):AID1961, AID1965]; assay type: functional
[32] = target: T6, G-protein coupled receptor 35; experiment: SAR analysis of Antagonists of the GPR35 Receptor using an Image-Based Assay - Set 4. [Related pubchem assays (depositor defined):[…]]; assay type: functional
[33] = target: T8, Voltage-dependent T-type calcium channel subunit alpha-1H (Homo sapiens, UniProt O95180); experiment: Inhibitors of T-Type Calcium Channels (Cav3.2 HEK whole cell CRC). [Related pubchem assays (depositor defined):AID449739, AID463087, AID489005, AID493021, AID493022, AID493023, AID493041, AID504579, AID504584]; assay type: functional, cell-based, HEK293
T8 sequence (O95180 whole entry): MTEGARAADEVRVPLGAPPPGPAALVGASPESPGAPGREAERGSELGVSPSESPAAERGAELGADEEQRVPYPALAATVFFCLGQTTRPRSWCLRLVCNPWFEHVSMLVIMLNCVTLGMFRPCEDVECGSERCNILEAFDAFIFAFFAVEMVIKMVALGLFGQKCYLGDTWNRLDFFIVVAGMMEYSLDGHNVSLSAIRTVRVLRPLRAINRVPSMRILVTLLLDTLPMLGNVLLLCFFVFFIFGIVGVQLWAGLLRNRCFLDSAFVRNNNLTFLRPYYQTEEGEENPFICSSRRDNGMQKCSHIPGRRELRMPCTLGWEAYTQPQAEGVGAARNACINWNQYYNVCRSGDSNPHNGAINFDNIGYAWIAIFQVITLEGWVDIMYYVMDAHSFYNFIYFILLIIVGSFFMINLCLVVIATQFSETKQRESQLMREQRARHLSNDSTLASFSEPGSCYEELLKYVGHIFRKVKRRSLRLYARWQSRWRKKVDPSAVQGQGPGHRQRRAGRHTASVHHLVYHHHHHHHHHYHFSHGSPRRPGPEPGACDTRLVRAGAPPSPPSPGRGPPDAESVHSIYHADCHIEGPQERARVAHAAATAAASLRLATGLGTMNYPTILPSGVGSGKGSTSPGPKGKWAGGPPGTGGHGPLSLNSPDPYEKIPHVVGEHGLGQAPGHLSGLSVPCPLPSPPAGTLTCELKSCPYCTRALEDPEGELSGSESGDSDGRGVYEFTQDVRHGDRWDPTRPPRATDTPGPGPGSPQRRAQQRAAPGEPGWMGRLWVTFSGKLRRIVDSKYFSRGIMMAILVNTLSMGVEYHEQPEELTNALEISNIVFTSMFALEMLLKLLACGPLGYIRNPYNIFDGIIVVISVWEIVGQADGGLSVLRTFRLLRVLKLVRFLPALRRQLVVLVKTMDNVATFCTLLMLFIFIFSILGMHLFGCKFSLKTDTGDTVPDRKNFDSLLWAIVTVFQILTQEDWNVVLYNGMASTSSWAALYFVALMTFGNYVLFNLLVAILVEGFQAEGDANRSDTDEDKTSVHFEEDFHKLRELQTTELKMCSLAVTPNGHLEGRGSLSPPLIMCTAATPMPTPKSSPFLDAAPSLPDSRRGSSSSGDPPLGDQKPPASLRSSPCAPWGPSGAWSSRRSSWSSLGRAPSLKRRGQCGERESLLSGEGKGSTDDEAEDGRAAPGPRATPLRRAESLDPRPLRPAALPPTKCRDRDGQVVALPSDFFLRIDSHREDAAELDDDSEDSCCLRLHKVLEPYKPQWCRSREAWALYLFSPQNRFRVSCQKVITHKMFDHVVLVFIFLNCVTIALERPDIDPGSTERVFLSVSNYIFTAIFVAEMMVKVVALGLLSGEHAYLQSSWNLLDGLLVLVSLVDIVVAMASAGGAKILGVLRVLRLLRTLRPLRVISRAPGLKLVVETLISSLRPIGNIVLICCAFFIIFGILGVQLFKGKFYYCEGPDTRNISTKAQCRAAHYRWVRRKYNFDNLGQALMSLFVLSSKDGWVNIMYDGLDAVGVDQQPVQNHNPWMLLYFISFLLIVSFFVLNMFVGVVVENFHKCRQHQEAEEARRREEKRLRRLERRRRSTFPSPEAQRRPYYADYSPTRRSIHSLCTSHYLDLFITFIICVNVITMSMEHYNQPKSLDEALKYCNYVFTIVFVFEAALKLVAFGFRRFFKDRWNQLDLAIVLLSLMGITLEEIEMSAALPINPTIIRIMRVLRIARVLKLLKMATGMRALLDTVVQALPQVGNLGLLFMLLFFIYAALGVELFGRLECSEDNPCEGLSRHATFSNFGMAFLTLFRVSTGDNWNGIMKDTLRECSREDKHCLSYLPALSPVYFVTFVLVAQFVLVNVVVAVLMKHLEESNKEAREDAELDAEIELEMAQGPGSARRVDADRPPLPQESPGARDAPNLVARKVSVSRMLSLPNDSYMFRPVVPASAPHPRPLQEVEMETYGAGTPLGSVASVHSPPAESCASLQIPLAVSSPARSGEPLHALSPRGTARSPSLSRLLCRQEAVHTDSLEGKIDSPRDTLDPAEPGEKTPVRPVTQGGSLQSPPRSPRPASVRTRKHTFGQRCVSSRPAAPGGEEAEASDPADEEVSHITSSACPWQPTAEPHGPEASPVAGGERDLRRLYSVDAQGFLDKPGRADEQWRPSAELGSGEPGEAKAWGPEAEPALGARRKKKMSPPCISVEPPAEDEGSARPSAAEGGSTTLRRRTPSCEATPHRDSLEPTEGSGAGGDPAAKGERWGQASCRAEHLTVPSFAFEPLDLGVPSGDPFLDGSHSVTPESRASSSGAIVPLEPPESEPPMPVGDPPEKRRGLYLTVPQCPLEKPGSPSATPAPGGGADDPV

[34] = target: T8, Voltage-dependent T-type calcium channel subunit alpha-1H; experiment: Cav3.2 T-type channel inhibitors, synthesized analogs, SAR follow-up, cell-based, synthetic library set 2, HEK293 HH8, Fluo-4 (AID 493023); assay type: functional
[35] = NIH-3T3 fibroblast cytotoxicity, dose response, cytotoxicity control, cell-based, fluorescence, Alamar Blue, secondary assay (AID 2327); assay type: functional;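 note: NIH-3T3 mouse fibroblasts cultured with fluconazole at 8 µg/mL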
[36] = cells; assay type: functional, cell-based
[37] = C. albicans growth with fluconazole, confirmation, fluorescence, retest (AID 2467); assay type: functional, cell-based
[38] = cells; assay type: functional, cell-based; remark: listed apart in the source
[39] = Luminescence Cell-Based Dose Retest to Confirm Inhibitors of Cancer Stem Cells. [Related pubchem assays (depositor defined):AID2717, AID2721]; assay type: functional; conditions: Homo sapiens
[40] = target: E3 ubiquitin-protein ligase Mdm2/Protein Mdm4 (Homo sapiens, UniProt O15151+Q00987); experiment: Mdm2-MdmX interaction inhibitors, dose response, luminescence detection (AID 504593); assay type: functional

In the case of `Cc1ccc(CNC(=O)NCc2ccccc2)cc1`, the IC50 [1] is reported as > 100 µM (inactive) and the IC50 [2] is reported as > 100 µM (inactive).

With `O=C(O)/C(=C\c1ccc(Cl)c([N+](=O)[O-])c1)c1ccc(S(=O)(=O)N2CCCC2)s1` the IC50 [3] was 15 µM (not active), the IC50 [4] was > 109 µM (not active) and the IC50 [5] was 19.4 µM (active). For the same compound, the IC50 [6] was 47.8 µM (active), the AC50 [7] was 3.82 µM (active) and the AC50 [8] was > 70 µM (inactive).

For `CC(C)NC(=O)c1ccccc1-c1ccccc1`, the IC50 [9] was > 50 µM (inactive).

In the case of `Cn1ncc2c(ON=C(N)c3ccc(C(C)(C)C)cc3)ncnc21`, the EC50 [10] is reported as > 120 µM (not active), the IC50 [11] is reported as 2.12 µM (active) and the EC50 [12] is reported as 1.32 µM (active). The EC50 [13] was 10.1 µM (active), the IC50 [14] was 1.22 µM (active) and the EC50 [15] was 7.4 µM (active). The EC50 [16] was 7.91 µM (active), the EC50 [17] was 5.24 µM (inconclusive) and the EC50 [18] was 4.91 µM (inconclusive). For the same compound, the EC50 [19] was 2.83 µM (active), the EC50 [20] was > 100 µM (inactive) and the “Absolute IC50 (XBP1)” value [21] was < 10 µM. The EC50 [22] was 2.92 µM (active) and the AC50 [23] was 5.03 µM (active).

With `O=C(Cc1ccc(-n2cccc2)cc1)N1CCc2ccccc21` the IC50 [24] was > 50 µM (inactive).

In the case of `COc1ccc(/C=C2\SC(=S)N(CCC(=O)N3CCOCC3)C2=O)cc1`, the EC50 [25] is reported as 16.2 µM (active).

In the case of `Cc1cccc(N2CCN(C(=O)c3cccc(S(=O)(=O)N(C)C)c3)CC2)c1C`, the IC50 [26] is reported as > 32 µM (inactive), the EC50 [27] is reported as 3.12 µM (active) and the EC50 [28] is reported as > 32 µM (inactive). For the same compound, the EC50 [29] was > 32 µM (inactive), the IC50 [30] was > 32 µM (inactive) and the EC50 [31] was > 32 µM (inactive). The IC50 [32] was > 32 µM (inactive).

With `CC(C)(C)CCN1C[C@@H]2[C@@H](CNC(=O)c3cc(Cl)cc(Cl)c3)[C@@H]2C1` the IC50 [33] was 0.036 µM (active) and the EC50 [34] was 0.15 µM (active).

For `O=C(CN1CCCc2ccccc21)N/N=C/c1c(O)ccc2ccccc12`, the EC50 [35] was > 160 µM (inconclusive), the EC50 [36] was 60.1 µM (active) and the EC50 [37] was 1.91 µM (active). The EC50 [38] was > 350 µM (not active), the AC50 [39] was 1.83 µM (active) and the IC50 [40] was 2.68 µM (active).
